Assay results published in the kinase profiling compilation of Christmann-Franck et al. (2016).

What was measured:
Experiment in all cases: KINOMEscan competition binding
Settings in all cases: compound 1.0 µM
RIOK3 (human) = RIOK3 (human) (UniProt O14730)
ITK (human) = ITK (human) (UniProt Q08881)
EPHB4 (human) = EPHB4 (human) (UniProt P54760)
[1] = system: ABL1 (human), P00519 [M351T]
BTK (human) = BTK (human) (UniProt Q06187)
MAP2K5 (human) = MAP2K5 (human) (UniProt Q13163)
ADCK4 (human) = ADCK4 (human) (UniProt Q96D53)
[2] = system: FLT3 (human), P36888 [D835Y]
SIK2 (human) = SIK2 (human) (UniProt Q9H0K1)
NEK6 (human) = NEK6 (human) (UniProt Q9HC98)
RPS6KA3 KD2 (human) = RPS6KA3 KD2 (human) (UniProt P51812)
CLK3 (human) = CLK3 (human) (UniProt P49761)
PDGFRA (human) = PDGFRA (human) (UniProt P16234)
[3] = target: JAK2 JH1 catalytic (human) (UniProt O60674)
PKN1 (human) = PKN1 (human) (UniProt Q16512)
NEK9 (human) = NEK9 (human) (UniProt Q8TD19)
MAPKAPK2 (human) = MAPKAPK2 (human) (UniProt P49137)
CSNK2A1 (human) = CSNK2A1 (human) (UniProt P68400)
STK36 (human) = STK36 (human) (UniProt Q9NRP7)
CDK15 (human) = CDK15 (human) (UniProt Q96Q40)
MYO3A (human) = MYO3A (human) (UniProt Q8NEV4)
PLK2 (human) = PLK2 (human) (UniProt Q9NYY3)
[4] = target: TYK2 JH2 pseudokinase (human) (UniProt P29597)
PRKCQ (human) = PRKCQ (human) (UniProt Q04759)
[5] = system: ABL1 (human), P00519 [Y253F]
MAP2K3 (human) = MAP2K3 (human) (UniProt P46734)
EIF2AK2 (human) = EIF2AK2 (human) (UniProt P19525)
SNRK (human) = SNRK (human) (UniProt Q9NRH2)
PRPF4B (human) = PRPF4B (human) (UniProt Q13523)
NEK7 (human) = NEK7 (human) (UniProt Q8TDX7)
[6] = system: MET (human), P08581 [Y1235D]
SRPK3 (human) = SRPK3 (human) (UniProt Q9UPE1)
[7] = system: MET (human), P08581 [M1250T]
MAK (human) = MAK (human) (UniProt P20794)
CDK17 (human) = CDK17 (human) (UniProt Q00537)
CSNK1A1L (human) = CSNK1A1L (human) (UniProt Q8N752)
[8] = target: JAK1 JH1 catalytic (human) (UniProt P23458)
[9] = system: RET (human), P07949 [M918T]
BRSK2 (human) = BRSK2 (human) (UniProt Q8IWQ3)

ADCK4 (human), sequence (Q96D53 whole entry, looked up): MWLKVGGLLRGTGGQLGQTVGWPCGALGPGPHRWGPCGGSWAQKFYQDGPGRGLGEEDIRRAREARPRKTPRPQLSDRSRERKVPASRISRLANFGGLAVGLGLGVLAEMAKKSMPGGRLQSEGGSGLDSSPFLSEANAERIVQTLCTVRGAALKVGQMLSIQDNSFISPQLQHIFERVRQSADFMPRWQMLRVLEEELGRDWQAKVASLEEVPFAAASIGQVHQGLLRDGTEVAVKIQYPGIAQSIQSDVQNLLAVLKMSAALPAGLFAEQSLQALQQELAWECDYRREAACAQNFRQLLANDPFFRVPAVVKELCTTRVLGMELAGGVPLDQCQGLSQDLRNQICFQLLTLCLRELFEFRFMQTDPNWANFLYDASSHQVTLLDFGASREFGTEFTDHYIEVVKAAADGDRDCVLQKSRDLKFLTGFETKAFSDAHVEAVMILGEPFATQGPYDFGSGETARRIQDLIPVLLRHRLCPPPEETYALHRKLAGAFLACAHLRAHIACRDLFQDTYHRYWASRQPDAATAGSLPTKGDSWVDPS
RET (human), P07949 [M918T], sequence (P07949 whole entry M918T, looked up): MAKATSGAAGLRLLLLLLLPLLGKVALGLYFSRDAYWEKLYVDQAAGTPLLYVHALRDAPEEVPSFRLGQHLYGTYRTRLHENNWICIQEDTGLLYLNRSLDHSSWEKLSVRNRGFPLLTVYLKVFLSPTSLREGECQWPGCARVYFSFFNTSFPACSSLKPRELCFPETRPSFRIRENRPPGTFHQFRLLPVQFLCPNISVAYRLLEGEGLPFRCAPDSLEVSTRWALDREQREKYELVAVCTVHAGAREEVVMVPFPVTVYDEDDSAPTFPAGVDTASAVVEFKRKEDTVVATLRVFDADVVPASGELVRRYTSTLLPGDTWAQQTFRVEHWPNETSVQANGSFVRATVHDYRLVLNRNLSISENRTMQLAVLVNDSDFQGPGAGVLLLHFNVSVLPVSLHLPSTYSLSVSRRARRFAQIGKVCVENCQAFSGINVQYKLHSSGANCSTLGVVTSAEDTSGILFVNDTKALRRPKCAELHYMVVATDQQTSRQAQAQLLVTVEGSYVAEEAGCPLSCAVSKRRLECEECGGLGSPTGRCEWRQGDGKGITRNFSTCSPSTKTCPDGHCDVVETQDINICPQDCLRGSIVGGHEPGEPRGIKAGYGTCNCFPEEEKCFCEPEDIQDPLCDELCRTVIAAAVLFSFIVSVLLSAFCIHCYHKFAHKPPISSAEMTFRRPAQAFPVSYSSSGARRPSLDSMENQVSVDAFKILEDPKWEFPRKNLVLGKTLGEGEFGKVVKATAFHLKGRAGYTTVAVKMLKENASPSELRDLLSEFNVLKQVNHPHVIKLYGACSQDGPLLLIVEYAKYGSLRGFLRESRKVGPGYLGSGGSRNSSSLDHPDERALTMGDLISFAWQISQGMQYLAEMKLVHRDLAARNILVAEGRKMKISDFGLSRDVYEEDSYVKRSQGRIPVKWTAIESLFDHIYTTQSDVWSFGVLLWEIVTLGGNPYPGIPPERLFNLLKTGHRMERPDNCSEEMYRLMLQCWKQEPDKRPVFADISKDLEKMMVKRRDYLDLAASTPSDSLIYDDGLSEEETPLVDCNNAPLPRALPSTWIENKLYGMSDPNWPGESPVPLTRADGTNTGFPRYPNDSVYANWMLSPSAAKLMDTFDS
TYK2 JH2 pseudokinase (human), sequence (P29597 whole entry, looked up): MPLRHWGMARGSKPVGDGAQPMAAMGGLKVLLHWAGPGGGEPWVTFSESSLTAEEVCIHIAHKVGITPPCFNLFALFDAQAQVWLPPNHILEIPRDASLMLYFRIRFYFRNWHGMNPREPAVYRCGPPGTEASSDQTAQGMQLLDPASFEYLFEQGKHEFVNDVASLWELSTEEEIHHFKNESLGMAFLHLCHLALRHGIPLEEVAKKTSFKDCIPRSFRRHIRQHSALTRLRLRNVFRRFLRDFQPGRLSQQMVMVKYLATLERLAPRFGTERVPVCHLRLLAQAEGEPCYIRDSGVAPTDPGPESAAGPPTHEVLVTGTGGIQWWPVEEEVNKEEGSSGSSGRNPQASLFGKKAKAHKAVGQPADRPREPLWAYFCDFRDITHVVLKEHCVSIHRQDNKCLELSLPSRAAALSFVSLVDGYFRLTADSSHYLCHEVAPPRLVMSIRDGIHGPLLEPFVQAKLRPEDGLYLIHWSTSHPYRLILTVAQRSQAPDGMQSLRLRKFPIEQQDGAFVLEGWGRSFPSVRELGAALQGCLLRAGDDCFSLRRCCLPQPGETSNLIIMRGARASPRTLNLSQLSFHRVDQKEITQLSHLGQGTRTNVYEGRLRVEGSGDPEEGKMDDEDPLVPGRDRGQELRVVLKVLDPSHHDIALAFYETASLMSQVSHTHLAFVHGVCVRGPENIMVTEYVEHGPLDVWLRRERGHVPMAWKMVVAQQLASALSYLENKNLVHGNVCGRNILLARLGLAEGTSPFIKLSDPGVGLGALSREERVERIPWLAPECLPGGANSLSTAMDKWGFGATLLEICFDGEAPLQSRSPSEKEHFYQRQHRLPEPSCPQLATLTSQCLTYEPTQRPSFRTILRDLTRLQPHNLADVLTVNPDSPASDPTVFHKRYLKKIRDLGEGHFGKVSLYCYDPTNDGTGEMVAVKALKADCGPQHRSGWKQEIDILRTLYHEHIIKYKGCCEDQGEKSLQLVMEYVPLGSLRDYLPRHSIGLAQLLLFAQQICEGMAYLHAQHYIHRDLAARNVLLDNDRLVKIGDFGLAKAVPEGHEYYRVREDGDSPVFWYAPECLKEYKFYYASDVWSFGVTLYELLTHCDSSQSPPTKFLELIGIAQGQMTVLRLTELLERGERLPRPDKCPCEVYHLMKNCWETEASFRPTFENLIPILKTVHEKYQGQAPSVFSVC
STK36 (human), sequence (Q9NRP7 whole entry, looked up): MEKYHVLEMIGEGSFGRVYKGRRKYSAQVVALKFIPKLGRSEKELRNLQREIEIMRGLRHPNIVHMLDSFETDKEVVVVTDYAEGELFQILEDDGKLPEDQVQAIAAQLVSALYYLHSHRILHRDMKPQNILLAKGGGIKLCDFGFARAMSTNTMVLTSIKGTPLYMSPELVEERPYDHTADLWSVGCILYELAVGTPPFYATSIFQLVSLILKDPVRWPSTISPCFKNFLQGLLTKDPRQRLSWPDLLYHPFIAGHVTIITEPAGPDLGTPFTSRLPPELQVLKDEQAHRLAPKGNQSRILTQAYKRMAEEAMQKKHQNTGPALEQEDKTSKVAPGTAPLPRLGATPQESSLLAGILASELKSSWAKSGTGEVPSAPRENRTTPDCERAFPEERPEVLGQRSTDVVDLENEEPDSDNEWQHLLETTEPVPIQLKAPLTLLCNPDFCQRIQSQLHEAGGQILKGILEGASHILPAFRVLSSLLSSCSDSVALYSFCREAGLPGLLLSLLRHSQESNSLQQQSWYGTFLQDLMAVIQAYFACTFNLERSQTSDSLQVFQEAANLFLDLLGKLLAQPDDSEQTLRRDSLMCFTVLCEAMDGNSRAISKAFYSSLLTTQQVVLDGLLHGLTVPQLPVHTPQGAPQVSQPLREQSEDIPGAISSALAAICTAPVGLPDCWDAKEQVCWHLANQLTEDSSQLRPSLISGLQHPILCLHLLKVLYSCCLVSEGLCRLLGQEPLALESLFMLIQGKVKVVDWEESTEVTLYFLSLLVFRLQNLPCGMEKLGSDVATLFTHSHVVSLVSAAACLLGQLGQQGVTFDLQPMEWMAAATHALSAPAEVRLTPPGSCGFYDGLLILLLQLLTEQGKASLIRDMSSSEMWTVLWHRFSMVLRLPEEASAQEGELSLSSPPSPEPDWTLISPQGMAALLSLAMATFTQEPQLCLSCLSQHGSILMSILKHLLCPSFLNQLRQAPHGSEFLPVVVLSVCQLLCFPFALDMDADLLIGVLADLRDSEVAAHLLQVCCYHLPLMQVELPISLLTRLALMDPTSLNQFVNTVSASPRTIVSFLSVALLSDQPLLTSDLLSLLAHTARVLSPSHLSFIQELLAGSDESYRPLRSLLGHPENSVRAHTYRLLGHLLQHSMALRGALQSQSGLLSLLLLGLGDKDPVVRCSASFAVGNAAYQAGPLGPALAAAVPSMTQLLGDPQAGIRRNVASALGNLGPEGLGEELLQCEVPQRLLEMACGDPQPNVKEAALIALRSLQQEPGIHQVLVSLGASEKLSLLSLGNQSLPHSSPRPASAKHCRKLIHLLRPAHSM
CSNK2A1 (human), sequence (P68400 whole entry, looked up): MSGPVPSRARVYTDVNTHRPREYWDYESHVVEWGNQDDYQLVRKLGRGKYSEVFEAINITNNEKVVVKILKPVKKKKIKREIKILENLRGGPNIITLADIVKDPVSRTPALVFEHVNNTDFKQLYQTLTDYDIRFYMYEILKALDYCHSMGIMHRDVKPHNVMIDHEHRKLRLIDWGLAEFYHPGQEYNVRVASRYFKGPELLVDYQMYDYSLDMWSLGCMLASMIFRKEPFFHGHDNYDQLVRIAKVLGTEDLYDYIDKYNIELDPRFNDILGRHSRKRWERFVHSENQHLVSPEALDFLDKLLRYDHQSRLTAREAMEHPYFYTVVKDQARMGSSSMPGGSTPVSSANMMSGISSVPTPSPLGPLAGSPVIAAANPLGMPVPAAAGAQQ
CLK3 (human), sequence (P49761 whole entry, looked up): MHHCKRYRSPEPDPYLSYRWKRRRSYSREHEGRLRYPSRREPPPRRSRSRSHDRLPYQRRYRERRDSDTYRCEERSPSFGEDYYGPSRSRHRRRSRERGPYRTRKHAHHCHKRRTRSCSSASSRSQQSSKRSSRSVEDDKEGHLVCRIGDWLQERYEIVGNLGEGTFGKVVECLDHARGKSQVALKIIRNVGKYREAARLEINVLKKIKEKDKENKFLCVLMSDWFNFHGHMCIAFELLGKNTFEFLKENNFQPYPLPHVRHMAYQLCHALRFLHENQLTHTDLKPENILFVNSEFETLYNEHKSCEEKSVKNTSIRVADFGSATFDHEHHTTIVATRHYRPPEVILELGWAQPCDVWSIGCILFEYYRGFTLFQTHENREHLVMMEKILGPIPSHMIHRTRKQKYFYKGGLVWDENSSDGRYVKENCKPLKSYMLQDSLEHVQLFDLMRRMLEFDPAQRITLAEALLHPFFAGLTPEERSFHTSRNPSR

CNc1nc(Nc2ccc(C(=O)N3CCOCC3)cc2OC)ncc1Cl
kinase still bound, per cent of control (RIOK3 (human)): 87%
kinase still bound, per cent of control (ITK (human)): 100%
kinase still bound, per cent of control (EPHB4 (human)): 100%
kinase still bound, per cent of control [1]: 97%
kinase still bound, per cent of control (BTK (human)): 100%
kinase still bound, per cent of control (MAP2K5 (human)): 100%
kinase still bound, per cent of control (ADCK4 (human)): 100%
kinase still bound, per cent of control [2]: 72%
kinase still bound, per cent of control (SIK2 (human)): 100%
kinase still bound, per cent of control (NEK6 (human)): 100%
kinase still bound, per cent of control (RPS6KA3 KD2 (human)): 95%
kinase still bound, per cent of control (CLK3 (human)): 100%
kinase still bound, per cent of control (PDGFRA (human)): 87%
kinase still bound, per cent of control [3]: 100%
kinase still bound, per cent of control (PKN1 (human)): 100%
kinase still bound, per cent of control (NEK9 (human)): 93%
kinase still bound, per cent of control (MAPKAPK2 (human)): 95%
kinase still bound, per cent of control (CSNK2A1 (human)): 76%
kinase still bound, per cent of control (STK36 (human)): 100%
residual activity (CDK15 (human)): 84%
kinase still bound, per cent of control (MYO3A (human)): 63%
kinase still bound, per cent of control (PLK2 (human)): 100%
kinase still bound, per cent of control [4]: 100%
kinase still bound, per cent of control (PRKCQ (human)): 100%
kinase still bound, per cent of control [5]: 69%
kinase still bound, per cent of control (MAP2K3 (human)): 93%
kinase still bound, per cent of control (EIF2AK2 (human)): 100%
kinase still bound, per cent of control (SNRK (human)): 100%
kinase still bound, per cent of control (PRPF4B (human)): 98%
kinase still bound, per cent of control (NEK7 (human)): 88%
kinase still bound, per cent of control [6]: 100%
kinase still bound, per cent of control (SRPK3 (human)): 64%
kinase still bound, per cent of control [7]: 100%
kinase still bound, per cent of control (MAK (human)): 100%
residual activity (CDK17 (human)): 97%
kinase still bound, per cent of control (CSNK1A1L (human)): 94%
kinase still bound, per cent of control [8]: 82%
kinase still bound, per cent of control [9]: 100%
kinase still bound, per cent of control (BRSK2 (human)): 51%
